Measurements as given in patent publication US9932589B2, “EML4-ALK fusion gene” (Astellas Pharma Inc., priority 2006, dated 2018).

Legend:
NPM-ALK = molecular target: T1, NPM-ALK (Homo sapiens, UniProt Q9UM73); settings: Non-Patent Document 22; cited from earlier work
T1 construct: the other entry of the earlier key: NPM1 (P06748, Nucleophosmin)

[1] = molecular target: T2, EML4-ALK fusion polypeptide v1 (Homo sapiens, UniProt Q9UM73, D1529E/I1461V/K1491R); experiment: intracellular autophosphorylation of EML4-ALK fusion polypeptide v1 in v1 expressing 3T3 cells; assay type: cell-based; settings: 4 hours
T2 construct: expressed in transfected cells; host or cells: mouse 3T3 fibroblasts transfected with EML4-ALKv1/pMXS (v1 expressing 3T3 cells); for A10, grown as a subcutaneous tumour in nude mice

[2] = system: CD8 expressing BA/F3 cells; experiment: growth of CD8 expressing BA/F3 cells in the presence of IL-3; assay type: cell-based, mouse; settings: 1 μM, 5 μM or 10 μM
U-87MG cells = experiment: anchorage independent growth on spheroid plate, U-87MG cells expressing full length ALK; assay type: cell-based, human; settings: 3 days; for inhibition at 0.01 µM: final concentration 10 nM
Method: (§1) The v1 expressing 3T3 cells (Example 6(1)) and one of the human glioma cells expressing the full length ALK polypeptide and not expressing EML4-ALK fusion polynucleotide endogenously, U-87 MG cells, were seeded to a 96 well spheroid plate (Sumilon Celltight Spheroid 96U, Sumitomo Bakelite Inc.) at 3000 cells per well in a medium containing 10% fetal bovine serum (DMEM for v1 expressing 3T3 cells and RPMI 1640 for U-87MG). […] At the same time, cells were counted before the addition of drugs (Day 0). Then, cells were cultured under 5% CO2, at 37° C. for 3 days, mixed with a reagent for measuring cell number (CellTiter-Glo™ Luminescent Cell Viability Assay; Promega Inc.) stirred for 20 minutes, and the measurements (day 3) were carried out using a luminometer (ML3000 microtiter plate luminometer; Dynatech Laboratories Inc.).

v1 expressing 3T3 cells = experiment: anchorage independent growth on spheroid plate, v1 expressing 3T3 cells; assay type: cell-based, mouse
Method: as §1

[3] = system: EML4-ALK fusion polypeptide v1; experiment: intracellular autophosphorylation of EML4-ALK fusion polypeptide v1 in v1 expressing BA/F3 cells; assay type: cell-based, human; settings: for Inhibition on autophosphorylation (BA/F3cells): 6 hours
Method: Compound A (1 μM, 5 μM and 10 μM) was added to the culture medium of v1 expressing BA/F3 cells (Example 5(1)) or not added, and cultured for 3 hours. In addition, BA/F3 cells expressing FLAG-EML4-ALKv1(K589M) were produced using pMX-iresCD8 vector in which EML4-ALK (K589M) was integrated so that FLAG can be added, and cultured. After culturing, cells were counted and the level of phosphorylation of tyrosine of EML4-ALK fusion polypeptide v1 was measured by immunoblotting using anti-phosphorylated ALK antibody. Further, for the same transfer membrane, immunoblotting analysis by anti-FLAG tag antibody (Eastman Kodak Inc.) was carried out, and total protein quantity of the FLAG attached EML4-ALK fusion polypeptide v1 was measured.
However, the culturing time after the addition of the compounds was 6 hours, and the total protein amount of the EML4-ALK fusion polypeptide v1 was measured using anti-ALK antibody. In addition, the amount of phosphorylation was calculated by quantitating as in Example 7(2). Also, for compound A, the amount of phosphorylation was calculated by quantitating in experiment under this condition. The rate of inhibition was calculated from the amount of phosphorylation when the compound was added, using the value when the compound was not added (the solvent of the compound, DMSO was added) as a control (0% inhibition).

[4] = system: EML4-ALK fusion polypeptide v1; experiment: in vitro phosphorylation of peptide substrate (TK substrate 1) by EML4-ALK fusion polypeptide v1, HTRF KinEASE-TK kit; assay type: biochemical, human
Method: (§2) The v1 expressing BA/F3 cells (Example 5(1)) were cultured in RPM1640 medium containing 10% of fetal bovine scrum to obtain 2.7×10^9 cells. After washing 3 times with PBS, cells were lysed in a lysis solution (50 mM Tris HCl (pH7.4), 150 mM NaCl, 1% Triton×100, 5 mM EDTA, 5 mM EGTA, 1 mM NaVO4, 1 mM DTT and protease inhibitor cocktail complete). The EML4-ALK fusion polypeptide v1 present in the supernatant obtained after a centrifugation was purified using ANTI-FLAG M2 Affinity Gel (SIGMA-ALDRICH Inc) according to the method described in the product information document. For washing and elution, the washing solution (50 mM Tris.HCl (pH7.4), 250 mM NaCl, 0.05% Brij35, 1 mM EDTA, 1 mM EGTA, 1 mM NaVO4, 1 mM DTT, complete) and the elution solution (50 mM Tris.HCl (pH7.4), 150 mM NaCl, 0.05% Brij35, 1 mM DTT, 0.5 mg/mL FLAG peptide) were used, respectively. Immunoblotting using anti-ALK antibody and anti FLAG M2 antibody (SIGMA-ALDRICH Inc.) and silver staining were carried out for the eluate to detect the EML4-ALK fusion polypeptide v1.
In addition, the phosphorylation activity toward a peptide substrate was investigated using a kinase activity detection kit (HTRF KinEASE-TK; Cisbio Inc.). Using TK substrate 1, which was included in the kit, as the substrate, and after adding no ATP or 100 μM ATP, the mixtures were reacted at room temperature for 1 hour, and the count of HTRF was detected as recommended by the Kits manufacturer. As the result it became clear that the count of HTRF (that is, phosphorylation of the peptide substrate) was increased by about 12 times by the addition of ATP compare to no addition of ATP. As shown above, the in vitro kinase activity of the EML4-ALK fusion polypeptide v1 can be detected using anti-phosphorylated ALK antibody and the kinase activity detection kit.
(§3) The inhibitory effect of compound A-D against the in vitro kinase activity of the EML4-ALK fusion polypeptide v1 was investigated using anti-phosphorylated ALK antibody and the kinase activity detection kit. Respective compounds were added to the reaction solution containing the EML4-ALK fusion polypeptide v1 at a final concentration of 10 μM or 10 nM, and then the reaction was carried out with or without the addition of ATP. The rest of the operations were carried out according to the method (2) described above. […] The inhibition (%) of the kinase activity of the EML4-ALK fusion polypeptide v1 by a compound was calculated by the following formula. […]

[5] = system: EML4-ALK fusion polypeptide v1; experiment: in vitro kinase activity (autophosphorylation) of purified EML4-ALK fusion polypeptide v1, immunoblotting with anti-phosphorylated ALK antibody; assay type: biochemical, human
Method: as §2
The EML4-ALK fusion polypeptide v1 purified as described above was diluted in a reaction solution (15 mM Tris HCl (pH7.4), 0.25 mM MgCl2, 0.01% Tween-20, 2 mM DTT), and then ATP was not added or ATP 20 μM was added. The respective mixtures were reacted at room temperature for 1 hour. After the reaction, the auto phosphorylated EML4-ALK fusion polypeptide v1 and the EML4-ALK fusion polypeptide v1 were detected by immunoblotting using anti-phosphorylated ALK antibody, which recognizes specifically the product phosphorylated at the 1604th tyrosine residue of ALK, and anti-ALK antibody, and quantitated by an image analysis system (VersaDoc Imaging System; Bio-Rad Inc.). The amount of phosphorylation was calibrated by dividing the count of the autophosphorylated EML4-ALK fusion polypeptide v1 by the count of the EML4-ALK fusion polypeptide v1. As the result, the autophosphorylated EML4-ALK fusion polypeptide v1 band was detected at the location of about 130 kDa under the condition of ATP addition, and the amount of phosphorylation was increased by about 205 folds compared to no-ATP addition.
as §3

[6] = system: v1 expressing BA/F3 cells; experiment: growth of v1 expressing BA/F3 cells in the absence of IL-3; assay type: cell-based, mouse; settings: 1 μM, 5 μM or 10 μM
Method: Next, compound A, which is a substance that inhibits the EML4-ALK fusion polypeptide v1, was added to BA/F3 cells which obtained the IL-3 independent growth potential by expressing the EML4-ALK fusion polypeptide v1, and its effect on cell growth was investigated. […] That is, it was confirmed that cells, growing dependently on the EML4-ALK fusion polynucleotide (oncogene), were killed by an inhibitor of the EML4-ALK fusion polypeptide v1.

[7] = molecular target: T3, EML4-ALK fusion polypeptide v2 (Homo sapiens, UniProt Q9UM73, D1529E/I1461V/K1491R); experiment: intracellular autophosphorylation of EML4-ALK fusion polypeptide v2 in 293EBNA cells; assay type: cell-based; settings: final concentration 10 nM, 4 hours
T3 construct: expressed in transfected cells; host or cells: 293EBNA cells (Invitrogen) transfected with FLAG-EML4-ALKv2/pcDNA3

[8] = system: v1 expressing 3T3 cells (tumor); experiment: anti-tumor test against v1 expressing 3T3 cells inoculated subcutaneously in nude mice; assay type: in vivo, mouse; settings: once a day for 10 days, start 6 days after inoculation, otherwise similar procedure
Method: Administrations were performed once a day for 14 days, and body weight and tumor size were measured every other day. Tumor volume was calculated using the following formula. […] The administration of the compound D was started after 6 days of the inoculation and carried out once a day for 10 days, and then the tumor size was measured.

[9] = Mus musculus, NIH3T3, read-out: inhibition rate of anchorage independent growth, v1 expressing 3T3 cells
[10] = Homo sapiens, U-87 MG, 72 h, read-out: inhibition rate of anchorage independent growth, U-87MG cell

T2 sequence (Q9UM73 with tags, fused parts or gaps I1461V/K1491R/D1529E): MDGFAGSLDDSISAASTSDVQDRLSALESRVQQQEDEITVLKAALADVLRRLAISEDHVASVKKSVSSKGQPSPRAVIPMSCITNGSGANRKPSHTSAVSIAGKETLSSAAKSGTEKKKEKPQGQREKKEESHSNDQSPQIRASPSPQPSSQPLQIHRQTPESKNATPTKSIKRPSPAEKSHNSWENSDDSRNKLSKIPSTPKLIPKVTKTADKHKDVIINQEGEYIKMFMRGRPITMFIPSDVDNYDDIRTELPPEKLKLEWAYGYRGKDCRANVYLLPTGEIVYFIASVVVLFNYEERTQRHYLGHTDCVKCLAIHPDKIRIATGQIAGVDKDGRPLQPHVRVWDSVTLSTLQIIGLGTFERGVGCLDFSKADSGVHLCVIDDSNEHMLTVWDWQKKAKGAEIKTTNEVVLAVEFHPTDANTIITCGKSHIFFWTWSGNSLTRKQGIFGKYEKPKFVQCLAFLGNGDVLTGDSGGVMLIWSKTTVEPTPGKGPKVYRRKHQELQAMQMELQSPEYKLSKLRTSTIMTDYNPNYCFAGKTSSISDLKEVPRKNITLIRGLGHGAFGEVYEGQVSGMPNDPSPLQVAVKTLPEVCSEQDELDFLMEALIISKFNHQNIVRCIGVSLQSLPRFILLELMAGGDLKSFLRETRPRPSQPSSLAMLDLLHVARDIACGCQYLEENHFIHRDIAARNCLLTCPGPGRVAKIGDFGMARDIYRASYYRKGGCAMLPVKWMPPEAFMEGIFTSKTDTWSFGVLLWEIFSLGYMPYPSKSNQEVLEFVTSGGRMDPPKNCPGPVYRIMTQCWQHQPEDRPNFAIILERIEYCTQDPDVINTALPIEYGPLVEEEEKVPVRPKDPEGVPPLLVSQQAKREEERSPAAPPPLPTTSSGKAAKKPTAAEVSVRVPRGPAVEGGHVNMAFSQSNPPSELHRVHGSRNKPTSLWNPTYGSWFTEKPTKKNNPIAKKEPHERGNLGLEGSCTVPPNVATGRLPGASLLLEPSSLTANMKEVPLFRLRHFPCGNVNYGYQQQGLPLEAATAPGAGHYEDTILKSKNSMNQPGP
T1 sequence (Q9UM73 with tags, fused parts or gaps): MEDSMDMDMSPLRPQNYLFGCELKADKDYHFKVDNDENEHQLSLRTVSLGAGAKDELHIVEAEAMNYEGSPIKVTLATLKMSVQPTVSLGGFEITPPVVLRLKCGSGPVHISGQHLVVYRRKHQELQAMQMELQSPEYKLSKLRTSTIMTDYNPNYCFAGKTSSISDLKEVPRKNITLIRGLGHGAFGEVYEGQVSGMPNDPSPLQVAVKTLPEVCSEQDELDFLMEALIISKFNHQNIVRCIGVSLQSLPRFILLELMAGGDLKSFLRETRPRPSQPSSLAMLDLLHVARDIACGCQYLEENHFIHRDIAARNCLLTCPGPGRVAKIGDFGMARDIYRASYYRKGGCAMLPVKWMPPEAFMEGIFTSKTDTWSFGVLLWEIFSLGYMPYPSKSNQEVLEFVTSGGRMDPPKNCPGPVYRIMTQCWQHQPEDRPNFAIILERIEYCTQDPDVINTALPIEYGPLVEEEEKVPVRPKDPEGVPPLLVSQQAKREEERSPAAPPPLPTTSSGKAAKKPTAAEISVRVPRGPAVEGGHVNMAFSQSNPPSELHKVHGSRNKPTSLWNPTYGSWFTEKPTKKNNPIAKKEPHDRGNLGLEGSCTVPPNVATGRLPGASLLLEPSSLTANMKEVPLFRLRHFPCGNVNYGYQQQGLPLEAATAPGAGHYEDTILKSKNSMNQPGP
T3 sequence (Q9UM73 with tags, fused parts or gaps I1461V/K1491R/D1529E): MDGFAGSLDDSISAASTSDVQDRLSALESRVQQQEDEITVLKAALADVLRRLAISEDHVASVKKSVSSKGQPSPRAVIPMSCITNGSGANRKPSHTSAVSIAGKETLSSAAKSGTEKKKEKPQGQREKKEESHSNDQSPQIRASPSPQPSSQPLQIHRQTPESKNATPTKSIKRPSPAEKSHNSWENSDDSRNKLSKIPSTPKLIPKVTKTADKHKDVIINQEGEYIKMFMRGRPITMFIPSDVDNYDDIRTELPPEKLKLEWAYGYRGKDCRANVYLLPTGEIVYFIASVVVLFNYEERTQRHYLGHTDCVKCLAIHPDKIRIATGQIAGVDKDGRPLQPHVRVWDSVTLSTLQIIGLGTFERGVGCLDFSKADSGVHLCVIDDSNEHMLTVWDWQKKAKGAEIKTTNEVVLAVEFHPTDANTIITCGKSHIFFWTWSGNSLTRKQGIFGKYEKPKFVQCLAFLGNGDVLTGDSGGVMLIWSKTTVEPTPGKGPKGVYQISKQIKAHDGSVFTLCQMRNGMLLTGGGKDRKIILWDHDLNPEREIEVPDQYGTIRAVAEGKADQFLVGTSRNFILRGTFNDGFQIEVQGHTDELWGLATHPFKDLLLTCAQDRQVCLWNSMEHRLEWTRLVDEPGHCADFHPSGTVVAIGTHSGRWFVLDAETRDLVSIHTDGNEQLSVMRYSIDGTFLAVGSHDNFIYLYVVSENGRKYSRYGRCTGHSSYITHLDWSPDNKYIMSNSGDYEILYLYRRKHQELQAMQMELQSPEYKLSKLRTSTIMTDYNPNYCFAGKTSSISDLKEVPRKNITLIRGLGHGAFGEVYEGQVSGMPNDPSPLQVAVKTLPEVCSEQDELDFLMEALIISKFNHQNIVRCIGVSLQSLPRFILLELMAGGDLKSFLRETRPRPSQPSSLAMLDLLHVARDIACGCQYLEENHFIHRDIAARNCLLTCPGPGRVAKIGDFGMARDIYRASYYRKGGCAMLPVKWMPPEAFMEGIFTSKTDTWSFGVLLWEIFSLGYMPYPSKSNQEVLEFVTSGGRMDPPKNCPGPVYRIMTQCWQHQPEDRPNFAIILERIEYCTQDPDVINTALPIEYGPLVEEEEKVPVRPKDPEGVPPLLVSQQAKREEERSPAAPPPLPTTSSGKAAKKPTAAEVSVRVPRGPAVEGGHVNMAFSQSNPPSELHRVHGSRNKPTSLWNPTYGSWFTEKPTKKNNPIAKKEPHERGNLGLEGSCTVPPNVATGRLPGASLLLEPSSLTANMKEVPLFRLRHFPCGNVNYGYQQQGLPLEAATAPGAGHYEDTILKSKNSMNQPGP

Row | SMILES | activity of NPM-ALK (NPM-ALK) | Inhibition on autophosphorylation (BA/F3cells) ([3]; final concentration 10 μM) [%] | Inhibition on peptide substrate ([4]; final concentration 10 μM) [%] | Inhibition on autophosphorylation ([5]; final concentration 10 μM) [%] | inhibition at 0.01 µM (U-87MG cells; [10]) [%] | inhibition at 0.01 µM (v1 expressing 3T3 cells; [9]) [%] | Inhibition on autophosphorylation (BA/F3cells) ([3]; final concentration 10 nM) [%] | Inhibition on peptide substrate ([4]; final concentration 10 nM) [%] | Inhibition on autophosphorylation ([5]; final concentration 10 nM) [%] | other results
1 | COc1cc2ncnc(Nc3ccc(O)cc3)c2cc1OC [WHI-P131, 4-(4′-Hydroxyphenyl)amino-6,7-dimethoxyquinazo line] | inhibit the activity of NPM-ALK |  |  |  |  |  |  |  |  | 
2 | COc1cc2ncnc(Nc3ccc(O)c(Br)c3)c2cc1OC [compound A, 4-[(3′-Bromo-4′-hydroxyphenyl)amino]-6,7-dimethoxyquinazoline] | inhibit the activity of NPM-ALK | 74 | 99 | 104 |  |  |  |  |  | Inhibition on autophosphorylation (3T3cells) ([1]; final concentration 10 μM): 82%; cell growth of CD8 expressing BA/F3 cells (FIG. 6(a)) [2]: a slight growth inhibition was observed; inhibition rate of anchorage independent growth, U-87MG cell (U-87MG cells; final concentration 10 μM): 15%; inhibition rate of anchorage independent growth, v1 expressing 3T3 cells (v1 expressing 3T3 cells; final concentration 10 μM, 3 days, Day 0 = 100%, Day 3 = 0% inhibition): 106%; intracellular autophosphorylation of the EML4-ALK fusion polypeptide v1 (FIG. 4) ([3]; 1 μM, 5 μM and 10 μM, 3 hours): inhibits the intracellular autophosphorylation of the EML4-ALK fusion polypeptide v1 in a concentration-dependent manner; cell growth of v1 expressing BA/F3 cells (FIG. 6(b)) [6]: the cell growth was markedly inhibited by concentration-dependence of compound A and cell death was induced
3 | O=C(COc1ccc(OC(F)(F)F)cc1)NCc1nc(C(=O)NCCc2cccc(Cl)c2)cs1 [compound B, N-[2-(3-chlorophenyl)ethyl]-2-[({[4-(trifluoromethoxy)phenoxy]acetyl}amino)methyl]-1,3-thiazole-4-carboxamide] |  | 77 | 56 | 68 |  |  |  |  |  | inhibition at 10 µM ([1]; NIH3T3, final concentration 10 μM, read-out: Inhibition on autophosphorylation (3T3cells)): 49%; inhibition at 10 µM (U-87MG cells; Homo sapiens, U-87 MG, 72 h, final concentration 10 μM, read-out: inhibition rate of anchorage independent growth, U-87MG cell): 34%; inhibition at 10 µM (v1 expressing 3T3 cells; [9]): 91%
4 | COc1cc(N2CCC(N3CCN(C)CC3)CC2)ccc1Nc1ncc(Cl)c(Nc2ccccc2S(=O)(=O)C(C)C)n1 [compound C, 5-chloro-N^4-[2-(isopropylsulfonyl)phenyl]-N^2-{2-methoxy-4-[4-(4-methylpiperazin-1-yl)piperidin-1-yl]phenyl}pyrimidine-2,4-diamine] |  |  |  |  | -2 | 131 | 84 | 99 | 102 | 
5 | CNS(=O)(=O)c1ccccc1Nc1nc(Nc2ccc(N3CCN(C)CC3)cc2OC)ncc1Br [compound D, 2-[(5-bromo-2-{[2-methoxy-4-(4-methylpiperazin-1-yl)phenyl]amino}pyrimidin-4-yl)amino]-N-methylbenzenesulfonamide] |  |  |  |  | -2 | 135 | 90 | 99 | 96 | inhibition at 0.01 µM ([1]; NIH3T3, final concentration 10 nM, read-out: Inhibition on autophosphorylation (3T3cells)): 86%; inhibition at 0.01 µM [7]: 95%; inhibition of growth of v1 expressing 3T3 cells (tumor), tumor volume [8]: 101%
